Values quoted from earlier work as cited in US20240358692A1, “TREATMENT OF SCLERODERMA” (Aisa Pharma, Inc., priority 2023, published 2024).

Details: oral dosing; cited from earlier work

For CCOC(=O)C1=C(COCCN)NC(C)=C(C(=O)OC)C1c1ccccc1Cl (stereo not shown) [amlodipine], the “time to achieve maximal plasma concentrations (Tmax)” value is given as 10 h.
